From patent US8501683B2, “Cycloundecadepsipeptide compounds and use of said compounds as a medicament” (priority 2008, dated 2013)
Square brackets hold non-standard residues; d marks the D form. Peptide text beside a SMILES is read from it. MeBmt = C/C=C/C[C@@H](C)[C@@H](O)[C@H](NC)C(=O)O; NEtVal = CCN[C@H](C(=O)O)C(C)C; NMeL = CN[C@@H](CC(C)C)C(=O)O; NMeV = CN[C@H](C(=O)O)C(C)C; dHiv = CC(C)[C@@H](O)C(=O)O; NMeA = CN[C@@H](C)C(=O)O; dNMeA = CN[C@H](C)C(=O)O; Abu = CC[C@H](N)C(=O)O

Legend:
[1] = Cytostatic/cytotoxic effect, MTT (MTS) assay in Huh 9-13 cells; assay type: cell-based; conditions: human, Huh 9-13 cells containing the HCV genotype 1b Con1 replicon, metabolic activity reduced to 50% of untreated cells
Description: Assays used Huh 9-13 containing the hepatitis C virus genotype 1b Con1 replicon (Lohmann et al. 2001. J. Virol. 75:1437-1449; and Lohmann et al. 1999. Science. 285:110-113). Cells were sub-cultured in cell growth medium DMEM supplemented with 10% FCS, 1% non-essential amino acids, 1% penicillin/streptomycin and 2% Geneticin (Invitrogen) at a ratio of 1:4-1:5 and grown for 3-4 days in 75 cm^2 tissue culture flasks (Techno Plastic Products), were harvested and seeded in assay medium (DMEM, 10% FCS, 1% non-essential amino acids, 1% penicillin/streptomycin) at a density of 5 000 cells/well (100 μl/well) in 96-well tissue culture microtiter plates (Falcon, Beckton Dickinson) for evaluation of cytostatic/cytotoxic and antiviral effect. The microtiter plates were incubated overnight (37° C., 5% CO2, 95-99% relative humidity), yielding a non-confluent cell monolayer.
Cell density and cytostatic effects were estimated in parallel cultures in regular 96-well plates (Beckton-Dickinson) using the MTT assay (CellTiter 96 AQueous Non-Radioactive Cell Proliferation Assay, Promega). In this assay, 3-(4,5-dimethyl-thiazol-2-yl)-5-(3-carboxymethoxy-phenyl)-2-(4-sulfophenyl)-2H-tetrazolium (MTS) is bioreduced to a formazan that is quantified at 498 nm in a plate reader. Formazan production is directly correlated with number of life cells. Absorbance was measured at a wavelength of 498 nm (Safire^2, Tecan) and optical densities (OD values) were converted to percentage of untreated controls.
The compounds were dissolved in DMSO at a concentration of 4 mmole/L. Stock solutions were immediately used to set up the experiments. The compounds were tested at 24 different concentrations ranging from 0.0001 μmole/L to 100 μmole/L. The highest concentration of DMSO in the assay was determined to be 2.5% (at 100 μM final concentration of the compound). During the assay setup, the DMSO percentage decreased concomitantly with decrease in concentration of the compound.
The EC50 (value derived from the dose-response curve) represents the concentration at which 50% inhibition of viral replication is observed. The CC50 (value derived from the dose-response curve) represents the concentration at which the metabolic activity of the cells is reduced to 50% of the metabolic activity of untreated cells.
Results from these experiments permitted calculation of EC50±SD (standard deviation or Std. Dev.), which is the effective concentration required to inhibit HCV replicon replication by 50%, and of CC50±SD (whenever possible), which is the concentration required that inhibits the proliferation of exponentially growing cells by 50%. EC50 and CC50±SD values were calculated respectively as the median of all the EC50, or CC50 values derived from the 3 individual dose-response curves. The selectivity index (SI), indicative of the therapeutic window of the compound was calculated as the ratio between CC50 and EC50.

[2] = tested on: Concanavalin-A-induced T-cell proliferation; assay: Concanavalin-A-induced T-cell proliferation assay (immunosuppression); assay type: cell-based; conditions: inhibition of Concanavalin-A-induced T-cell proliferation
Protocol: To determine whether the cycloundecadepsipepide compounds of the present invention have a non-immunosuppression activity, experiments were carried out that compared the dose-dependent inhibition of Concanavalin-A-induced T-cell proliferation (see Table 2).
The method of the assays were performed as described by Dayton et al. (1992. Mol. Pharmacol. 41. 671-676) and Mishell et al. (1980. Cell proliferation in selected methods in cellular immunology, V, XXIX, W.H. Freeman Co., San Francisco, Calif. 153-160).

[3] = molecular target: T1, sodium-taurocholate cotransporting polypeptide (NTCP) (Homo sapiens, UniProt Q14973); assay: NTCP inhibition, taurocholate uptake in CHO cells; assay type: in vitro ADME; conditions: for NTCP fold Debio 025: IC50 ratio compared to Debio 025; for IC50 / NTCP IC50: probe taurocholate, CHO cells
T1 sequence (Q14973 1-349): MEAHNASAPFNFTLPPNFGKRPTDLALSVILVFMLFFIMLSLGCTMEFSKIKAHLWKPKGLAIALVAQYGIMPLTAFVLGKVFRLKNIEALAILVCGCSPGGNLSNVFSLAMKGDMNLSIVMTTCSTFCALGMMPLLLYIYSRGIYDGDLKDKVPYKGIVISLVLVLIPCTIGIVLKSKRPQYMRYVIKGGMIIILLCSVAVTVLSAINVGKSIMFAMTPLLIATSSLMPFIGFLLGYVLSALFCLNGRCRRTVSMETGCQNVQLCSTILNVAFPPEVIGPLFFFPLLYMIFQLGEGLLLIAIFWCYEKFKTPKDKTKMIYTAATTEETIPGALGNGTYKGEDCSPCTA

[4] = tested on: hepatitis C virus genotype 1b Con1 replicon; assay: HCV replicon assay, replicon RNA by RT-qPCR in Huh 9-13 cells; assay type: cell-based; conditions: 50% inhibition of HCV replicon replication, 3 dose-response curves
Protocol: For the evaluation of antiviral effects, assay medium was aspirated and the plates with dry monolayer were stored at −80° C. awaiting extraction. Following thawing of the plates at room temperature, the cell monolayer was lysed with 100 μl of cell-to-cDNA lysis buffer (Invitrogen). Lysis of the cells was allowed to proceed for 10 min at room temperature after which all liquid was transferred to a PCR plate (Axygen). The PCR plate was incubated for 15 min at 75° C. […] The lysate was diluted 1:2 with RNase/DNase-free water, after which 5 μl was transferred to the real-time PCR plate (Applied Biosystems).
Replicon RNA content was quantified using a real-time quantitative one-step RT-PCR method (RT-qPCR): Low Rox One-Step RT-qPCR master mix, Abgene). […] The fluorogenic probe was 5′-[sequence]-3′. The analysis of the samples were performed using a SDS7500F (Applied Biosystems, standard thermocycling profile: 30 min at 48° C., 10 min at 95° C., 40 cycles of 15 sec at 95° C. and 1 min at 60° C.) after which replicon RNA quantities were converted to percentage of untreated controls.

[5] = molecular target: organic anion transporting polypeptide 1B1 (OATP1B1) (Homo sapiens, UniProt Q9Y6L6)
organic anion transporting polypeptide 1B1 (OATP1B1), sequence (Q9Y6L6 whole entry): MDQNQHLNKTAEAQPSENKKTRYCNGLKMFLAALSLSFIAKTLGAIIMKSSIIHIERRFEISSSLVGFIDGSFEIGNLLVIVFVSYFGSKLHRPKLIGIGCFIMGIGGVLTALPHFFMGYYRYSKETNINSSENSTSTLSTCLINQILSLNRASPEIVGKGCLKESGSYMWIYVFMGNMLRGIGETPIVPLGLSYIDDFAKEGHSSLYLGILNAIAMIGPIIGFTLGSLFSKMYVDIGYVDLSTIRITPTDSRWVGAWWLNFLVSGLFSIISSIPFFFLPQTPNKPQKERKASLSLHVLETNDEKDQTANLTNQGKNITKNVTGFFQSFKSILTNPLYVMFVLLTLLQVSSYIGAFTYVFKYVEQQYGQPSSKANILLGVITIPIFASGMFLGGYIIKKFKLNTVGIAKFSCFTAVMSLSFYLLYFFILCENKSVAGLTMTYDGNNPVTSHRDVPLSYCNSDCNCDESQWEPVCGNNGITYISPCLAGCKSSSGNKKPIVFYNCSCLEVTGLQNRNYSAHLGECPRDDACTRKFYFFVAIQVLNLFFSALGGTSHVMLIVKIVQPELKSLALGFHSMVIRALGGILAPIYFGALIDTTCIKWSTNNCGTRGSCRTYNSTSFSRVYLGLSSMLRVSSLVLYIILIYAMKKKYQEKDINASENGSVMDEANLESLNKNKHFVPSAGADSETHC
Protocol: (§1) To determine whether the cycloundecadepsipeptide compounds of the present invention interact with hepatic transporters, experiments were carried out that compared the concentration-dependent inhibition towards the multidrug resistance associated protein 2 (MRP2), the organic anion transporting polypeptide 1B1 (OATP1B1), the bile salt export pump (BSEP) and the sodium-taurocholate cotransporting polypeptide (NTCP). These transporters are involved in the hepatobiliary circulation of endogenous compounds such as bile salts or bilirubin (for a review, see C. Pauli-Magnus et al, J. Hepatology, 2005, 43:342-357). Some of them also contribute to the elimination of xenobiotics.
OATP1B1 and NTCP assays were performed with Chinese hamster ovary (CHO) cells expressing these human uptake transporters. The amount of the transported probe substrate (estrone-3-sulfate and taurocholate for OATP1B1 and NTCP, respectively) was determined by liquid scintillation or fluorescent photometry after cell lysis.
(§2) The IC50 (defined as the concentration required for inhibiting the transport of the probe substrate by 50%, half maximal inhibitory concentration) of the compounds was derived from the concentration-response curve and compared to the IC50 of Debio 025 (IC50 ratio expressed as “fold Debio 025” in the tables).

[6] = molecular target: bile salt export pump (BSEP) (Homo sapiens, UniProt O95342); conditions: for BSEP fold Debio 025: IC50 ratio compared to Debio 025
bile salt export pump (BSEP), sequence (O95342 whole entry): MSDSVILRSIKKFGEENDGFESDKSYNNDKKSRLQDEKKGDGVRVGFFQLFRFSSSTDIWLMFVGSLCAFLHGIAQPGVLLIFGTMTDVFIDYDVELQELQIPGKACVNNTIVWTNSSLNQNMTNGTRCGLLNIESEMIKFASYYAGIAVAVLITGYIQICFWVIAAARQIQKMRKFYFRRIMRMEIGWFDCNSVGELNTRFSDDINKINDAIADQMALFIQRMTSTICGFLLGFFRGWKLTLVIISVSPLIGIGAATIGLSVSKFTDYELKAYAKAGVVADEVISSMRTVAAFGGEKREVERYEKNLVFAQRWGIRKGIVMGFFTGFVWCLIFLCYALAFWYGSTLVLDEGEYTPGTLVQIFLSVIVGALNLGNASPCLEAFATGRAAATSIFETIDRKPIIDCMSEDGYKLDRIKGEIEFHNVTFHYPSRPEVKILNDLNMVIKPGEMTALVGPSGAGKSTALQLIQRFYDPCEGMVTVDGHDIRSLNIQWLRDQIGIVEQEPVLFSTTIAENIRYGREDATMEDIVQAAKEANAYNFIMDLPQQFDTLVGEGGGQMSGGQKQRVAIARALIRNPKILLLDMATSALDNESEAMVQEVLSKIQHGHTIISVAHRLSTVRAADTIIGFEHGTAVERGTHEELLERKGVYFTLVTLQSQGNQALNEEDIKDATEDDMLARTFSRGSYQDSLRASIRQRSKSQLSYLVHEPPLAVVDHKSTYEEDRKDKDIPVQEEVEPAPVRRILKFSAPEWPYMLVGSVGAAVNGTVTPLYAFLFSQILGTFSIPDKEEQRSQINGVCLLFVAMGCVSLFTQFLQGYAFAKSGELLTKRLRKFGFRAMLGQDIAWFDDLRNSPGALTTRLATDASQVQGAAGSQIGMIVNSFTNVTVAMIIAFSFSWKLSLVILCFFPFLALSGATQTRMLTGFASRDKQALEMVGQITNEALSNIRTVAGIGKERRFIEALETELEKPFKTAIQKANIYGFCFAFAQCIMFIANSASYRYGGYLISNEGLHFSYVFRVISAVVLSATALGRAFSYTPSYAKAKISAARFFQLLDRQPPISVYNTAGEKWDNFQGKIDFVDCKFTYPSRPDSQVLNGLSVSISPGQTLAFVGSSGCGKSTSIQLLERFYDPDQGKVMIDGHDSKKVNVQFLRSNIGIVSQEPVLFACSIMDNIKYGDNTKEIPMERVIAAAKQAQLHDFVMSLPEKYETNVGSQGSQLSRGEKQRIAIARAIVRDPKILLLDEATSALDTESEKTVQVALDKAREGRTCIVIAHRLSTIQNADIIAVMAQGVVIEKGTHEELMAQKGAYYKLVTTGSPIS
Protocol: as §1
(§3) MRP2 and BSEP were expressed by SOLVO Biotechnology in Spodoptera frugiperda (Sf9) ovarian cells, by infecting the insect cells with a recombinant baculovirus. The inhibition of the transport of the radioactive probe substrates (estradiol-17-beta-glucuronide and taurocholate for MRP2 and BSEP, respectively) into inside-out membrane vesicles, containing the transporter, was measured by scintillation counting.
as §2

[7] = molecular target: multidrug resistance associated protein 2 (MRP2) (Homo sapiens, UniProt Q92887)
multidrug resistance associated protein 2 (MRP2), sequence (Q92887 whole entry): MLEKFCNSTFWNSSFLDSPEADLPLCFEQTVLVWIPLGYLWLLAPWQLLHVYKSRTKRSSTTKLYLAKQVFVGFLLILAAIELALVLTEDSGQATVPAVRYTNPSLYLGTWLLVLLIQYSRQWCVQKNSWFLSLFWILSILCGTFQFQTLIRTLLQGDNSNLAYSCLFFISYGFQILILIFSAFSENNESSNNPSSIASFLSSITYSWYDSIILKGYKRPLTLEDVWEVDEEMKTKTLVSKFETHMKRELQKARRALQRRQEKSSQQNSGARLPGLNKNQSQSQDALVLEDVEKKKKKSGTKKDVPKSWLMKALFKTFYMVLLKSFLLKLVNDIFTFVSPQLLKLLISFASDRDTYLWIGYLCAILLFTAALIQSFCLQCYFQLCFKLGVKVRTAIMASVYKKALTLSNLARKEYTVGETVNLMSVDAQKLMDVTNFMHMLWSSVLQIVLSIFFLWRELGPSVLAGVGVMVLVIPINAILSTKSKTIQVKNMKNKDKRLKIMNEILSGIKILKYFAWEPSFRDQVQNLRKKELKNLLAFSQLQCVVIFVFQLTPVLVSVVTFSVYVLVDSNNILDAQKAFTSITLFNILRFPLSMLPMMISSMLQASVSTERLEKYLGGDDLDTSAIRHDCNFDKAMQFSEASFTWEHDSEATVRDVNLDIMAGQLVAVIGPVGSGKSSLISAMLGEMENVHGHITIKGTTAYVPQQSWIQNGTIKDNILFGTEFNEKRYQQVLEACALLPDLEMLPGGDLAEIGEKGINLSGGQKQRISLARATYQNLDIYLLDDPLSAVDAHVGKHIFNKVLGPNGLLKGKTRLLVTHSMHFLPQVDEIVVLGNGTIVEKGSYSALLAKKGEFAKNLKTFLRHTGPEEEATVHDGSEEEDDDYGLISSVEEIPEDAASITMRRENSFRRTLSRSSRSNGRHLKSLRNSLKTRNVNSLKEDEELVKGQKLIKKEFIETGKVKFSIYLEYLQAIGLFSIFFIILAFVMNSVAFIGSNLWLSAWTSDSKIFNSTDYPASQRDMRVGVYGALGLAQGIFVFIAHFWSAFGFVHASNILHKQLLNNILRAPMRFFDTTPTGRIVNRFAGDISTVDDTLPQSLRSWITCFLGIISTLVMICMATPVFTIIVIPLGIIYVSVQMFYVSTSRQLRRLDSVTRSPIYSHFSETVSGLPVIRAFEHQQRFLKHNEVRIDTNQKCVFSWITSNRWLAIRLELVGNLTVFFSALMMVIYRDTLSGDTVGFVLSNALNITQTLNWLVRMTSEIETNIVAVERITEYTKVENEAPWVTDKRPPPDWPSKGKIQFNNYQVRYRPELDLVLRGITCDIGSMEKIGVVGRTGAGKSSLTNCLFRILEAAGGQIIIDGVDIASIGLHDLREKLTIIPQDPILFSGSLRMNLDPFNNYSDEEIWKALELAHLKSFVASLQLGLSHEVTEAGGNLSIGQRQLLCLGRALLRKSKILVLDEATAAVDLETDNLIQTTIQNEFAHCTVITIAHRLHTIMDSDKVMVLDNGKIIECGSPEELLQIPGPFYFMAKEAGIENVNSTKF
Protocol: as §1, §3, §2

**Q.** For `C/C=C/C[C@@H](C)[C@@H](O)[C@H]1C(=O)N[C@@H](CC)C(=O)N(C)[C@H](C)C(=O)N(C)[C@@H](C(C)C)C(=O)N[C@@H](CC(C)C)C(=O)N(C)[C@@H](CC(C)C)C(=O)N[C@@H](C)C(=O)O[C@H](C(C)C)C(=O)N(C)[C@@H](CC(C)C)C(=O)N[C@@H](CC(C)C)C(=O)N(C)[C@@H](C(C)C)C(=O)N1C` [(Id), cyclo-(MeBmt-Abu-D-MeAla-MeVal-Leu-MeLeu-Ala-D-Hiv-MeLeu-Leu-MeVal)] (cyclo(A[dHiv][NMeL]L[NMeV][MeBmt][Abu][dNMeA][NMeV]L[NMeL])), which CC50 [1] is on record?
**A.** 44.4 µM

**Q.** And the IC50 [2]?
**A.** 1.44 µM

**Q.** What about the “NTCP fold Debio 025” value [3] of the same compound?
**A.** 1.2

**Q.** What about the IC50 [3] of the same compound?
**A.** 2.5 µM

**Q.** And the EC50 [4]?
**A.** 0.025 µM

**Q.** What about the IC50 [5] of the same compound?
**A.** 7.9 µM

**Q.** What about the “OATP1B fold Debio 025” value [5] of the same compound?
**A.** 0.05

**Q.** And the IC50 [6]?
**A.** 0.57 µM

**Q.** What about the “BSEP fold Debio 025” value [6] of the same compound?
**A.** 0.42

**Q.** What about the “MRP2 IC50” value [7] of the same compound?
**A.** n.i.

**Q.** With `C/C=C/C[C@@H](C)[C@@H](O)[C@H]1C(=O)N[C@@H](CC)C(=O)N(C)[C@H](C)C(=O)N(C)[C@@H](C(C)C)C(=O)N[C@@H](C(C)C)C(=O)N(C)[C@@H](C)C(=O)N[C@@H](C)C(=O)O[C@H](C(C)C)C(=O)N(C)[C@@H](CC(C)C)C(=O)N[C@@H](CC(C)C)C(=O)N(C)[C@@H](C(C)C)C(=O)N1C` [(Ie), cyclo-(MeBmt-Abu-D-MeAla-MeVal-Val-MeAla-Ala-D-Hiv-MeLeu-Leu-MeVal)] (cyclo(A[dHiv][NMeL]L[NMeV][MeBmt][Abu][dNMeA][NMeV]V[NMeA])) as the compound, how does the CC50 [1] read?
**A.** 8.3 µM

**Q.** What about the IC50 [2] of the same compound?
**A.** 2 µM

**Q.** And the “NTCP fold Debio 025” value [3]?
**A.** 0.12

**Q.** And the IC50 [3]?
**A.** 26 µM

**Q.** What about the EC50 [4] of the same compound?
**A.** 0.07 µM

**Q.** What about the IC50 [5] of the same compound?
**A.** 0.58 µM

**Q.** And the “OATP1B fold Debio 025” value [5]?
**A.** 0.72

**Q.** What about the IC50 [6] of the same compound?
**A.** 0.6 µM

**Q.** What about the “BSEP fold Debio 025” value [6] of the same compound?
**A.** 0.40

**Q.** And the IC50 [7]?
**A.** 20 µM

**Q.** And the “MRP2 fold Debio 025” value ([7]; IC50 ratio compared to Debio 025)?
**A.** 0.73

**Q.** Which results are given for `C/C=C/C[C@@H](C)[C@@H](O)[C@H]1C(=O)N[C@@H](C(C)C)C(=O)N(C)[C@H](C)C(=O)N(C)[C@@H](C(C)C)C(=O)N[C@@H](CC(C)C)C(=O)N(C)[C@@H](CC(C)C)C(=O)NCC(=O)O[C@H](C(C)C)C(=O)N(C)[C@@H](CC(C)C)C(=O)N[C@@H](CC(C)C)C(=O)N(C)[C@@H](C(C)C)C(=O)N1C` [(If), cyclo-(MeBmt-Val-D-MeAla-MeVal-Leu-MeLeu-Gly-D-Hiv-MeLeu-Leu-MeVal)] (cyclo(G[dHiv][NMeL]L[NMeV][MeBmt]V[dNMeA][NMeV]L[NMeL]))?
**A.** CC50 [1]: 81.8 µM; IC50 [2]: 7.73 µM; NTCP IC50 [3]: n.i.; EC50 [4]: 0.025 µM; IC50 [5]: 15 µM; OATP1B fold Debio 025 [5]: 0.03; IC50 [6]: 0.48 µM; BSEP fold Debio 025 [6]: 0.50; MRP2 IC50 [7]: n.i.

**Q.** Which results are given for `C/C=C/C[C@@H](C)[C@@H](O)[C@H]1C(=O)N[C@@H](C(C)C)C(=O)N(C)[C@H](C)C(=O)N(CC)[C@@H](C(C)C)C(=O)N[C@@H](CC(C)C)C(=O)N(C)[C@@H](CC(C)C)C(=O)N[C@@H](C)C(=O)O[C@H](C(C)C)C(=O)N(C)[C@@H](CC(C)C)C(=O)N[C@@H](CC(C)C)C(=O)N(C)[C@@H](C(C)C)C(=O)N1C` [(Ih), cyclo-(MeBmt-Val-D-MeAla-EtVal-Leu-MeLeu-Ala-D-Hiv-MeLeu-Leu-MeVal)] (cyclo(A[dHiv][NMeL]L[NMeV][MeBmt]V[dNMeA][NEtVal]L[NMeL]))?
**A.** CC50 [1]: 20.5 µM; IC50 [2]: 1.74 µM; NTCP IC50 [3]: n.i.; EC50 [4]: 0.022 µM; IC50 [5]: 12 µM; OATP1B fold Debio 025 [5]: 0.04; IC50 [6]: 0.3 µM; BSEP fold Debio 025 [6]: 0.80; MRP2 IC50 [7]: n.i.
